Experimental data published in patent US20120251482A1, “USE FOR IMPROVING 5-HT FUNCTION AND ENOS EXPRESSION OF KMUPS AMINE SALTS” (KAOHSIUNG MEDICAL UNIVERSITY, priority 2011, published 2012).
Where a name gives a salt, the structure may show the parent alone.

Legend:
[1] = test system: human pulmonary artery endothelial cell (HPAEC); test: Nitric oxide production in HPAEC (Griess method); type: cell-based; conditions: 5-HT 10 μM for 30 min
Method: (§1) HPAEC purchased from ATCC were maintained in humidified incubator containing 5% CO2 at 37° C. HPAEC were cultured in F-12 supplemented with 10% fetal bovine serum. The culture medium was changed every 3 days and cells were subcultured until confluence. HPAEC were harvested with a solution of trypsin-EDTA (GIBCO BRL, NY, USA) while in a logarithmic phase of growth. HPAEC were used between passages 4-8.
Production of NO in HPAEC was determined using the Griess method (Niwano et al., 2003). The three step Greiss test converts nitrate (NO3^−) into nitrite (NO2^−) giving a total NO2^− concentration from a standard calibration curve. HPAEC were incubated with or without KMUP-1 (10 μM) for 24 h and then incubated with 5-HT (10 μmol/L) for 30 min. Media samples from HPAEC were taken and the NO concentration was determined. Six independent experiments were carried out and data are reported as the mean mean±SEM.

ERK1/2 = test: 5-HT-induced phosphorylation of ERK1/2 in PASMCs; type: cell-based, rat
Method: (§2) Wistar rats were anesthetized with an overdose of sodium pentobarbital (60 mg/kg) and the skin was sterilized with 75% alcohol. The chest was opened and the heart and lung were removed. The organs were rinsed several times in PBS. The pulmonary arterys (PAs) were segregated in a sterile manner. The outer sphere was peeled and the microtubule was snipped visually, and endothecia were shaved lightly 2-3 times in order to remove endothelial cells. The tunica media was prepared into scraps (1 mm^3) in DMEM (Dulbecco's modified Eagle's medium). PASMCs were cultured in DMEM containing 10% fetal bovine serum (5% CO2 at 37° C.). The culture medium was changed every 3 days and cells were subcultured until confluence. Primary cultures of 2-4 passages were used in the experiments. Cells were examined by immunofluorescence staining of α-actin to confirm the purity of PASMCs.
(§3) PASMCs were stimulated with 5-HT or not, as indicated. Cells were treated with KMUP-1 for 24 h before 5-HT stimulation. […]
(§4) The expression of RhoA/ROCK and phosphorylation of ERK1/2 and AKT kinase in PASMCs were assessed by incubating the PASMCs with 5-HT (10 μM) for 15 min (peak time for RhoA/ROCK, ERK1/2 and AKT phosphorylation) and 5-HTT for 10 min (peak time for 5-HTT) after KMUP-1 (1-100 μM) was added to the culture of PASMCs for 24 h.

AKT = test: 5-HT-induced phosphorylation of AKT in PASMCs; type: cell-based, rat
Method: as §2, §3, §4

eNOS = test: Expression of eNOS in HPAEC (Western blotting); type: cell-based, human
Method: as §1
PASMCs were stimulated with 5-HT or not, as indicated. Cells were treated with KMUP-1 for 24 h before 5-HT stimulation. Whole lysates were collected and resolved by SDS-PAGE as previously described (Liu et al., 2004). Primary antibodies were anti-β-actin at: 1:10,000 dilution and anti-RhoA, anti-ROCK, antiphospho-ERK1/2, anti-ERK1/2, anti-phospho-AKT, anti-AKT, anti-5HTT, anti-5-HT2B and anti-eNOS at 1:1000. All blots were incubated with antibodies at 4° C. overnight. After being washed, the appropriate secondary antibodies were added at a dilution of 1:1000 for 1 h at room temperature. After extensive washing, blots were developed with a Super Signal enhanced chemiluminescence kit (Biorad, CA, USA) and visualized on Kodak AR film.
To measure the expression of eNOS and 5-HT2B receptor in HPAEC after incubation with KMUP-1(1-100 μM) for 24 h, whole lysates were collected for Western blotting assay. The relative density was determined using NIH imaging software.

rat pulmonary artery = test: Isometric force of 5-HT-constricted pulmonary artery rings
Method: Wistar rats were euthanized with an overdose of sodium pentobarbital (60 mg/kg, i.p.) before open-chest surgery. During surgery, a thoracic retractor was used to help isolate the pulmonary artery. The chest was opened to dissect the second branches of the main pulmonary artery, which were cut into 2-3 mm rings, suspended under isometric conditions and connected to a force transducer as previously described (Ugo Basile, Model 7004, Comerio-VA, Italy) (Schach et al., 2007) to measure the constriction caused by 5-HT (10 μM). The pulmonary artery ring preparations were stretched to a basal tension of 1 g and allowed to equilibrate for 60-90 min. After equilibration, pulmonary artery rings were constricted with 5-HT (10 μM) to prime the tissues and check the functionality of the endothelium (at least 80% relaxation in response to acetylcholine 1 μM). Once the contractile response to each agonist reached a stable tension, KMUP-1 (0.1-100 μM) was cumulatively added to the organ bath in the presence of 5-HT (10 μM, pre-incubation time of 15 min).
The effect of KMUP-1 on NOS and 5-HT was also studied in vessels pre-incubated with the NOS inhibitor L-NAME (100 μM) 20 min before 5-HT administration. The percentage of relaxation was estimated using the following equation: relaxation (%)=(maximal contraction—relaxation level)/(maximal contraction-basal level)×100. Data was obtained from serotonin-induced maximal contractile responses in pulmonary artery.

[2] = test system: monocrotaline (MCT)-induced pulmonary artery hypertension rats; test: Mean pulmonary arterial pressure in MCT-induced PAH rats; type: in vivo, rat; conditions: MCT-treated rats, daily treatment for 21 days, n = 5
PASMCs [3] = test: 5-HT-induced PASMCs migration, wound assay model; type: cell-based, rat; conditions: 10-100 μM; 5-HT 10 μM 24 h
Method: The wound edge was viewed and photographed under a microscope (Nikon, Tokyo, Japan) before and after culture for 24 h in serum-free DMEM in the presence of 5HT (10 μM). The distance the cells migrated from the wound surface was then manually measured.

RhoA = test: 5-HT-induced RhoA translocation in PASMCs; type: cell-based, rat; conditions: 1-100 μM, 24 h; 5-HT 10 μM 15 min
Method: as §2, with “Cells were examined by immunofluorescence staining of α-actin to confirm the purity of PASMCs.” left out
Previous reports have shown that the active form of RhoA is translocated from the cytosol to the plasma membrane, where it activates Rho kinase (Gong et al., 1997)). […] To assess membrane trans-location of RhoA, protein in membrane and cytosolic fractions was determined by standard Western blot analysis using mouse monoclonal anti-RhoA antibody (1:1000 dilution, Santa Cruz Biotechnology) and a peroxidase-labeled anti-mouse immunoglobulin (Ig) G antibody (1:1000 dilution, Santa Cruz Biotechnology, CA, USA). The relative density of membrane to cytosolic RhoA was determined using NIH imaging software. […]

5-HTT = test: Pulmonary 5-HTT expression in MCT-treated rats (immunochemistry, Western blotting); type: in vivo, rat
Method: All experiments were performed in adult male Wistar rats (300 to 350 g) in accordance with institutional guidelines after approval by the ethical review committee. PAH development and pulmonary expression of 5-HTT were examined in rats after single injection of MCT (60 mg/kg i.p.). To assess the potential preventive effect of KMUP-1 on MCT-induced PAH and associated proliferation, we assigned rats at random to 2 groups of 8 animals which received KMUP-1 at 5 mg/kg/day p.o or 1 mg/kg/day i.p. All treatments were given once a day for 3 weeks after a single MCT injection (60 mg/kg i.p.) (Abe et al., 2004). On day 21, rats were anesthetized and pulmonary artery blood pressure (MPAP) was recorded as previously described (Chung et al., 2010). Lung tissues were dissected for Western blotting and immunohistochemistry.
For 5-HTT immunostaining, the lung slides were dewaxed in 100% xylene, and the sections were then rehydrated by successive immersion first in decreasing ethanol concentrations (100%, 90%, 80%, 50% and 30%) and then in water. Endogenous peroxidase activity was blocked using H2O2 in methanol (0.3% vol/vol) for 10 min. After three PBS washes, sections were pre-incubated in PBS supplemented with 3% (wt/vol) BSA for 30 min, then incubated overnight at 4° C. with goat polyclonal anti-5-HTT antibody (Abcam Biotechnology, Cambridge, UK) diluted to 1:1000 in 1×PBS, 0.02% BSA. […]

PASMCs [4] = test: 5-HT-induced PASMCs proliferation, MTT assay; type: cell-based, rat; conditions: KMUP-1 1-100 μM; 5-HT 10 μM 24 h
Method: as §2
PASMCs were seeded into 96-well plates at a density of 1×10^4 cells/well. […] At the end of this period, MTT (2 g/L) was added to each well, and incubation proceeded at 37° C. for 4 h. Thereafter, the medium was removed and the cells were solubilized in 150 μL DMSO. The optical density (OD) of each well was determined by enzyme-linked ELISA at 540 nm of wavelength.

[5] = test system: pulmonary arterial smooth muscle cells (PASMCs); test: PASMCs [Ca2+]i measurement (Fura-2/AM); type: cell-based, rat; conditions: at 10 μM; 5-HT 10 μM
Method: as §2
The measurement of [Ca^2+]i in PASMCs was performed using a spectrofluorophotometer as previously reported (Wang et al., 2004). PASMCs, cultured for 2-4 passages and re-suspended by trypsin, were loaded with Fura-2/AM for the measurement of [Ca^2+]i changes in cells within the cuvette by spectrofluorophotometer (Shimadzu, RF-5301PC, Shimadzu, Japan). KMUP-1 was applied 5 min before application of 5-HT (10 μM).

5-HT2B receptor = biological target: T1, 5-HT2B receptor (Homo sapiens, UniProt P41595); test: Displacement of [3H]-LSD radioligand binding; conditions: from Table 1
T1 construct: full length clones of 5-HT2A, 5-HT2B and 5-HT2C receptor were prepared from CHO-K1 cells; expressed in transfected cells; host or cells: CHO-K1
Method: As described previously (Bonhaus et al., 1995), full length clones of 5-HT2A, 5-HT2B and 5-HT2C receptor were prepared from CHO-K1 cells. […] IC50 represents the concentration of competing ligand which displaces 50% of the specific binding of the radioligand. Ki values for competition curves were calculated using the Cheng-Prusoff equation (Cheng, 2001).

[6] = pre-incubation 1-100 μM for 24 h

T1 sequence (P41595 whole entry): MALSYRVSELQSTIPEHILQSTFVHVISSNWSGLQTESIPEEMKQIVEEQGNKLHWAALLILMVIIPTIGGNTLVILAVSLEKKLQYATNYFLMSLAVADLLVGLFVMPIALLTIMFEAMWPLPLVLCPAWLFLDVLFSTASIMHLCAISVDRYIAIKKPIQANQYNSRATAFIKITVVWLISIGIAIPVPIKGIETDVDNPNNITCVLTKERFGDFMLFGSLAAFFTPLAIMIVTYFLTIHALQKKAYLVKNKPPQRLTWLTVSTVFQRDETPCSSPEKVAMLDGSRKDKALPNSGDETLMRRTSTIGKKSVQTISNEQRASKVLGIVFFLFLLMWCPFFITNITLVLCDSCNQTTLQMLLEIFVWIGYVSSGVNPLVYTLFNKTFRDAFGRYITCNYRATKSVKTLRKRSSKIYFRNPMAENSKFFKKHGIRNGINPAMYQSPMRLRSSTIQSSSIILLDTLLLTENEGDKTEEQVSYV

## NCCc1c[nH]c2ccc(O)cc12 [5-HT, 5-hydroxytryptamine]
[1]
  release of NO compared to the control group: increased
ERK1/2; 5-HT 10 μM for 15 min
  increase of phosphorylation of ERK1/2: 2.3 fold
AKT; 5-HT 10 μM for 15 min
  increase of phosphorylation of AKT: 2.3 fold
eNOS; 5-HT 10 μM for 30 min
  expression of eNOS compared to the control group: increased

## COC(=O)[C@@H](N)CCCNC(=N)N[N+](=O)[O-] [L-NAME, N^ω-nitro-L-arginine methyl ester, reference compound]
Rat pulmonary artery; L-NAME alone with 5-HT
  5-HT-induced constriction: enhanced

## Cn1c(=O)c2c(ncn2CCN2CCN(c3ccccc3Cl)CC2)n(C)c1=O [KMUP-1 HCl]
[2]
  mean pulmonary arterial pressure (MPAP), Table 2: 35.8 ± 3.2

## Cn1c(=O)c2c(ncn2CCN2CCN(c3ccccc3Cl)CC2)n(C)c1=O [KMUP-1, 7-[2-[4-(2-chlorophenyl)piperazinyl]ethyl]-1,3-dimethyl-xanthine]
PASMCs [3]
  5-HT induced PASMCs migration: inhibited
Rat pulmonary artery; 0.1-100 μM
  contractile response of pulmonary artery to 5-HT (10 μM): inhibited
Rat pulmonary artery; KMUP-1 10-100 μM, L-NAME 100
  maximum response of pulmonary artery to 5-HT in the presence of L-NAME: reduced the maximum response
RhoA
  5-HT stimulated RhoA translocation: inhibited
ERK1/2; [6]
  5-HT-induced phosphorylation of ERK1/2: dose-dependently inhibited
5-HTT; 21 days after MCT injection, 5 mg/kg p.o. and 1 mg/kg i.p.
  5-HTT expression in pulmonary artery, immunochemistry: significantly decreased
5-HTT; MCT-treated rats
  5-HTT protein expression in lung tissue, Western blotting: significantly reduced
PASMCs [4]
  PASMCs proliferation: dose-dependently inhibited
AKT; [6]
  5-HT-induced phosphorylation of AKT: dose-dependently inhibited
[5]
  inhibition of the sustained [Ca2+]i response to 5-HT: 65%
eNOS; 1-100 μM for 24 h
  eNOS expression: dose-dependently increased
5-HT2B receptor
  affinity order of the sub-receptors: 5-HT2A>5-HT2B>5-HT2C
  ligand specificity of the human 5-HT2B receptor versus 5-HT2A and 5-HT2C receptors: more selective
